Results as given in US11207301B2, “Sphingosine 1 phosphate receptor agonists for neuroprotection” (RECEPTOS LLC, priority 2017, dated 2021).

Assays:
Type in all cases: cell-based
[1] = tested on: AKT phosphorylation in primary rat astrocytes; experiment: AKT phosphorylation in primary rat astrocytes (MSD pAKT assay); conditions: Astrocyte, 10 min, 10-minute exposure, mean of n=4
Protocol: (§1) For the experiments using rat primary astrocytes, eight-point concentration-response curves were generated for AKT and ERK phosphorylation in primary rat astrocytes cultures in response to a 10-minute treatment with ozanimod (100 nM-46 pM), Compound 3 (10 nM-5 pM), Compound 1 (10 nM-5 pM), or FTY720-P (10 nM-5 pM). Phosphorylation of AKT and ERK was quantified using Meso Scale Discovery assay kits (MSD Mutli-Spot Phopho-AKT (Ser473) Assay Kit and MSD Multi-Spot MAP Kinase Phosphoprotein Assay Whole Cell Lysate Kit) and imaging platform. AKT and ERK phosphorylation within treated astrocytes were assessed as the mean change in signal intensity compared to DMSO vehicle and the half maximal effective concentration (EC50) was determined using non-linear regression.
(§2) Embryonic day18 (E18) rat cortices were purchased from BrainBits LLC. (Springfield, Ill.) and were cultured according to the supplier's protocol. Briefly, cortices were incubated at 37° C. for 10 minutes in activated papain solution before trituration in hibernation medium containing B27 supplement using a modified siliconized glass Pasteur pipette. The cell suspension was centrifuged at 1100×g for 1 minute at room temperature (RT). The cell pellet was then resuspended in NbAstro medium (BrainBits LLC.) and the live cell density was assessed using a cell counter. Primary cells were plated at a density of 7500 cells/cm2 in T75 tissue culture flasks coated with poly-D-lysine (PDL) in a total volume of 12 mL of NbAstro media, and incubated for 10-14 days at 37° C. 5% CO2. After 10-14 days, primary astrocytes in passage 0 (P0) that had reached confluency in the T75 flasks were detached using TrypLE detachment reagent, pelleted at 300×g, and plated into poly-d-lysine coated T225 flasks in 20 mL of NbAstro media, and incubated for another 7 days at 37° C. 5% CO2. After 7 days, primary P1 astrocytes in confluent T225 flasks were detached using TrypLE detachment reagent, pelleted at 300×g, and plated intopoly-d-lysine coated 96-well plates at 10,000 cells per well in 200 μL of NbAstro media, and incubated for 7 days at 37° C. 5% CO2. After 7 days, P2 primary astrocytes were utilized for pAKT and pERK assays.
(§3) The pAKT (phosphorylated AKT) assay was performed according to the manufacturer's protocol. Briefly, MSD pAKT plates were blocked for 1-2 hours by adding 150 μL of blocker A prepared in 1× Tris wash buffer. […] Following antibody incubation, plates were washed three times with 150 μL of 1× Tris wash buffer and 1× read buffer (150 μL/well) was added. Finally, plates were read in the MSD imager platform to assess pAKT levels.
(§4) AKT and ERK phosphorylation data were analyzed by non-linear regression (GraphPad Prism, version 6) to determine the EC50 values.

[2] = tested on: ERK phosphorylation in primary rat astrocytes; experiment: ERK phosphorylation in primary rat astrocytes (MSD pERK assay); conditions: Astrocyte, 10 min, 10-minute exposure, mean of n=3
Protocol: as §1, §2
as §3, with “The pERK” for “The pAKT”, “(phosphorylated ERK)/pMAPkinase” for “(phosphorylated AKT)”, “MSD pERK/pMAPkinase” for “MSD pAKT”, “Finally, the” for “Finally,”, “assess the pERK” for “assess pAKT”
as §4

[3] = tested on: AKT phosphorylation in primary mouse astrocytes; experiment: AKT phosphorylation in primary mouse cortical astrocytes (AlphaLISA SureFire Ultra); conditions: Astrocyte, 10 min, 10-minute exposure, mean of n=3
Protocol: (§5) For the experiments using mouse and human primary astrocytes, ten-point concentration-response curves (90 nM-4.57 pM or 30 nM-1.52 pM) were generated for AKT and/or ERK phosphorylation in primary human and mouse cortical astrocytic cultures in response to a 10-minute treatment with ozanimod, Compound 3, Compound 1, or FTY720-P. AKT and ERK phosphorylation were quantified using AlphaLISA SureFire Ultra Assay kits and the EnVision Plate Reader. AKT and ERK phosphorylation within treated astrocytes were expressed as the mean change in signal intensity compared to the dimethyl sulfoxide (DMSO) vehicle and the half maximal effective concentration (EC50) was determined using non-linear regression.
Timed pregnant (E16) C57BL/6J female mice arrive to the test facility on a weekly basis and were housed and cared for according to appropriate protocols for this model. Primary mouse cortical astrocytes are harvested from P0-P2 pups. The newly born animals were deeply anesthetized on ice, decapitated, and the brains were rapidly removed and stored in ice-cold NbAstro media (BrainBits, LLC). Cells were dissociated from freshly dissected cortices by mechanical disruption in the presence of trypsin and DNase. Cells were put into a PDL coated T75 tissue culture flask containing 16 mL NbAstro Media and incubated at 37° C. 5% CO2. Once the mouse astrocytes had reached confluency in the T75 flask, they were detached using TripLE detachment reagent, pelleted at 300×g, expanded into two T225 PDL coated tissue culture flasks containing 40 mL of NbAstro and incubated at 37° C. 5% CO2. Once the astrocytes reached confluency in the T225 flasks they were detached using TrypLE detachment reagent, pelleted at 300×g, plated into PDL coated 96-well plates at a density of 10,000 cells per well in 200 μL NbAstro and incubated at 37° C. 5% CO2. Half of the media was replenished every 3-4 days. After 5-7 days of incubation, the P2 mouse astrocyte plates were utilized for the pERK and pAKT assays.
Cell lysis and detection of pAKT were performed according to the PerkinElmer AlphaLISA SureFire Ultra pAKT1/2/3 ([…]) assay protocol. Astrocytes were lysed in the 96-well plate following a 10 minute incubation with compounds with shaking at room temperature (RT). The astrocytic lysates (10 μL/well) were transferred into a 384-well OptiPlate. As specified by the assay protocol, an acceptor bead mix and a donor bead mix (5 μL/well for each) were added to the plate under subdued light. […] The plates were read on the EnVision Plate Reader to assess the pAKT levels.
(§6) The AKT and ERK phosphorylation data, collected by a Perkin Elmer EnVision Microplate Reader, was analyzed by non-linear regression (GraphPad Prism, version 7.03) to determine the EC50 values.

[4] = tested on: ERK phosphorylation in primary human astrocytes; experiment: ERK phosphorylation in primary human cortical astrocytes (AlphaLISA SureFire Ultra); conditions: Astrocyte, 10 min, 10-minute exposure, n=3-5
Protocol: as §5
Primary human astrocytes were purchased from ScienCell Research Laboratories, Inc. and cultured according to the supplier's protocol. The astrocytes were obtained from the human cerebral cortex, cryopreserved at passage one, and delivered frozen. The frozen vials of cells were gently thawed in a 37° C. water bath. Once the contents of the vial were completely thawed, the cell solution was dispensed into a poly-L-lysine (PLL) coated T75 tissue culture flask with 16 mL of human Astrocyte Media, (ScienCell Research Laboratories, Inc.) and incubated at 37° C. 5% CO2. Once the human astrocytes had reached confluency in the T75 flask, they were detached using trypsin/EDTA 0.25%, pelleted at 300×g, split into two PLL coated T225 tissue culture flasks in 40 mL of astrocyte media, and incubated at 37° C. 5% CO2. Once the astrocytes reached confluency in the T225 flasks, they were detached using trypsin/EDTA 0.25% solution, pelleted at 300×g, plated into poly-D-lysine (PDL) coated 96-well plates at a density of 10,000 cells per well in 200 μL human Astrocyte Media, and incubated at 37° C. 5% CO2. Half of the media was replenished every 3-4 days. After 5-7 days of incubation, the P2 human astrocyte plates were utilized for the pERK and pAKT assays.
Cell lysis and detection of pERK were performed according to the PerkinElmer AlphaLISA SureFire Ultra p-ERK1/2 (Thr202/TYR 204) assay protocol. Astrocytes were lysed in the 96-well plate following a 10 minute incubation with compounds with shaking at RT. The astrocytic lysates (10 μL/well) were transferred into a 384-well OptiPlate. As specified by the assay protocol, an acceptor bead mix and a donor bead mix (5 μL/well for each) were added to the plate under subdued light. Plates were sealed with adhesive plate seals and incubated in the dark for 2 hours at RT. The plates were read on the EnVision Plate Reader to assess the pERK levels.
as §6

- EC50 [1]: 0.23 nM
- EC50 [2]: 0.11 nM
- EC50 [3]: 0.13 nM
- EC50 [4]: 0.5 nM
SMILES: CC(C)Oc1ccc(-c2nc(-c3cccc4c3CCC4NCC(=O)O)no2)cc1C#N (stereo not shown) [Compound 3]
